Measured values taken from PubChem BioAssay (NCI).
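Method: 48-hour compound exposure of cells in 96-well plates, five concentrations, linear interpolation of endpoints. GI50: concentration for 50% inhibition of growth. TGI: total growth inhibition.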

Assays:
Assay in all cases: growth of human tumour cells (NCI), 48 h
[1] = tested on: IGROV1 ovarian
[2] = tested on: M14 melanoma
[3] = tested on: SF-268 CNS
[4] = tested on: SK-MEL-5 melanoma
[5] = tested on: SNB-75 CNS
[6] = tested on: SW-620 colon
[7] = tested on: UACC-257 melanoma
[8] = tested on: UACC-62 melanoma
[9] = tested on: DU-145 prostate
[10] = tested on: MDA-MB-231 breast

Row | SMILES | GI50 [1] | TGI [1] | GI50 [2] | TGI [2] | GI50 [3] | TGI [3] | GI50 [4] | TGI [4] | GI50 [5] | TGI [5] | GI50 [6] | TGI [6] | GI50 [7] | TGI [7] | GI50 [8] | TGI [8] | GI50 [9] | TGI [9] | GI50 [10] | TGI [10]
1 | CC(=O)[O-].CC(=O)[O-].O=C([CH-]C(=O)c1ccccc1)c1ccccc1.[Nd+3].[OH3+] | 28.5 µM | > 100 µM | 20.7 µM | 53 µM | 16.8 µM | > 100 µM | 14.5 µM | 33.9 µM | 6.24 µM | 32.9 µM | 16.3 µM | > 100 µM | 17.9 µM | 54.9 µM | 16.5 µM | 48.6 µM |  |  |  | 
2 | O=C(O)C1=Cc2cccc3cccc(c23)C1=O |  | > 100 µM |  | > 100 µM |  | > 100 µM |  | > 100 µM |  | > 100 µM |  | > 100 µM |  | > 100 µM |  | > 100 µM |  |  |  | 
3 | CC(=O)OC(C(=O)[O][Ge]([CH3])([CH3])[CH3])c1ccccc1 (centres undefined) | > 100 µM | > 100 µM | > 100 µM | > 100 µM | > 100 µM | > 100 µM | > 100 µM | > 100 µM | > 100 µM | > 100 µM | > 100 µM | > 100 µM | > 100 µM | > 100 µM | > 100 µM | > 100 µM |  |  |  | 
4 | Cc1ccc2ncnc(N(C)C3CCCCC3)c2c1 | 34.1 µM | > 100 µM | 24.3 µM | 63.4 µM | 23.7 µM | 89.8 µM | > 100 µM | > 100 µM |  |  |  |  |  |  | 31.9 µM | > 100 µM | 33.9 µM | > 100 µM |  | 
5 | CC(=O)Oc1ccc2c(=O)c(C(C)=O)coc2c1 |  | > 100 µM |  | > 100 µM |  | > 100 µM |  | > 100 µM |  |  |  | > 100 µM |  | > 100 µM |  |  |  |  |  | 
6 | Cc1[nH]c(=O)n2c(C)nnc2c1C(=O)O |  | > 100 µM |  | > 100 µM |  | > 100 µM |  |  |  |  |  | > 100 µM |  |  |  | > 100 µM |  |  |  | 
7 | CCCCCOC(=O)Nc1nc(=O)n(C2OC(C)C(O)C2O)cc1F (centres undefined) |  | > 10000 µM | > 10000 µM | > 10000 µM | > 10000 µM | > 10000 µM | 338 µM | > 10000 µM |  |  | > 10000 µM | > 10000 µM | > 10000 µM | > 10000 µM |  |  |  |  |  | 
8 | COC(=O)c1cc(O)ccc1O |  | > 100 µM |  | > 100 µM |  | > 100 µM |  | > 100 µM |  | > 100 µM |  | > 100 µM |  | > 100 µM |  | > 100 µM |  |  |  | 
9 | O=C(O)c1ccc(CSc2nc3ccccc3[nH]2)cc1 | > 100 µM | > 100 µM | > 100 µM | > 100 µM | > 100 µM | > 100 µM | > 100 µM | > 100 µM | > 100 µM | > 100 µM | > 100 µM | > 100 µM | > 100 µM | > 100 µM |  |  | > 100 µM | > 100 µM | > 100 µM | > 100 µM
10 | CC[O-].CC[O-].O=C1C=C([O-])C(=O)c2ccccc21.O=C1C=C([O-])C(=O)c2ccccc21.[Ti+4] | > 100 µM | > 100 µM | 8.52 µM | > 100 µM | > 100 µM | > 100 µM | 3.07 µM | 55.9 µM | 4.99 µM | > 90.1 µM | 90.5 µM | > 100 µM | > 27.9 µM | > 100 µM | 21.5 µM | > 100 µM |  |  |  | 
11 | Nc1c(C(=O)Nc2cccc(Cl)c2)sc2nc3c(cc12)C(O)CCC3 (centres undefined) | 0.992 µM | 40.7 µM | 0.367 µM | > 49.7 µM | 0.754 µM | 39.1 µM | 0.375 µM | 18.3 µM | 0.373 µM | 21.6 µM | 0.48 µM | > 89.3 µM |  |  | 0.463 µM | 58.8 µM | 0.388 µM | 16.3 µM | 1.92 µM | 49.1 µM
12 | O=C(/C=C(/C=C/c1cccc2[nH]ccc12)OB(F)F)/C=C/c1cccc2[nH]ccc12 | 0.62 µM | 6 µM | 1.07 µM | 6.93 µM | 1.13 µM | 3.98 µM | 1.26 µM | 2.73 µM |  |  | 0.393 µM | 1.58 µM | 2.15 µM | 11.8 µM | 0.833 µM | 2.97 µM | 0.753 µM | 2.07 µM | 1.55 µM | 5.19 µM
13 | C[n+]1cccc(NC(=O)c2ccc3ccc4ccc(C(=O)Nc5ccc[n+](C)c5)nc4c3n2)c1 | 1.51 µM | > 100 µM | 3.67 µM | > 100 µM | 3.82 µM | 42.1 µM |  |  | 1.15 µM | 9.9 µM | 2.91 µM | > 100 µM | > 100 µM | > 100 µM | 0.357 µM | 2.05 µM | 0.376 µM | 15.6 µM | 2.41 µM | > 52.4 µM
14 | CC(=O)OCc1nnn2c1C(OC(C)=O)CC2 (centres undefined) |  | > 100 µM |  | > 100 µM |  |  |  | > 100 µM |  | > 100 µM |  | > 100 µM |  | > 100 µM |  | > 100 µM |  |  |  | 
15 | CC1=C2CC[C@@]3(C)C(=CCC3O)C2(C)CCC1=O (some centres undefined) |  | > 100 µM |  | > 100 µM |  | > 100 µM |  | > 100 µM |  | > 100 µM |  | > 100 µM |  | > 100 µM |  | > 100 µM |  |  |  | 
16 | O=C(Cc1cc(O)ccc1O)NO | > 100 µM | > 100 µM | > 100 µM | > 100 µM | > 100 µM | > 100 µM | > 100 µM | > 100 µM |  |  | 25.1 µM | 54.1 µM | 59.9 µM | > 100 µM | 24.7 µM | 63.3 µM | > 100 µM | > 100 µM | 19.9 µM | 47 µM
17 | CCOC(=O)C(C(=O)OCC)=C1C=C(c2ccccc2)c2ccccc21 |  | > 100 µM |  | > 100 µM |  | > 100 µM |  | > 100 µM |  | > 100 µM |  | > 100 µM |  | > 100 µM |  | > 100 µM |  |  |  | 
18 | COC(=O)C1C(C(=O)O)C2(c3ccccc3)C(=O)C1(c1ccccc1)C(c1ccc(OC)cc1)=C2c1ccc(OC)cc1 (centres undefined) | 19.9 µM | 45.8 µM | 18.6 µM | 34.8 µM | 25 µM | 82.2 µM | 16.8 µM | 32.4 µM |  |  | 23.2 µM | 46.6 µM | 19.1 µM | 43.9 µM | 18.8 µM | 35.2 µM | 19.9 µM | 49.8 µM | 24 µM | 54.5 µM
